What all share (test): Cell growth inhibition, SRB assay
Holding throughout (type): cell-based, human
A general note: Sulforhodamine B stains cellular protein and so reports cell mass.

For one assay, the system named is Hs578T. The following applies: Homo sapiens, Hs-578T; Breast Hs578T, 3% FBS. How it is done: (§1) Compounds were dissolved in DMSO and further diluted in cell culture medium for the experiments performed. Cells were seeded into 96-well plates with 1,500-5,000 cells/well according to cell growth rate. After 24 h, DMEM medium containing 10% FBS were changed to DMEM containing 3% FBS for cancer cells and additional 3% FBS were added into the culture medium for normal cells. The compound was added into the cell culture at the indicated concentrations, and the final concentration of DMSO was adjusted to a final concentration of 0.1%. Cells were subjected to either normoxic condition (20% O2) for 6 days or hypoxic condition (0.2% O2) for 2 days and then transferred to normoxic condition for 4 days. Cell viability was assessed by Sulforhodamine B (SRB) assay at Day 6.
(§2) Sulforhodamine B (SRB) (Sigma, Oakville, ON, Canada) is a water-soluble dye that binds to the basic amino acids of the cellular proteins. Thus, colorimetric measurement of the bound dye provides an estimate of the total protein mass that is related to the cell number. The cells were fixed in situ by gently aspirating off the culture media and adding 50 ul of cold 10% trichloroacetic Acid (TCA) per well and incubated at 4° C. for 30-60 min. The plates were washed five times with water and allowed to air dry for 5 min. 50 ul of 0.4% (w/v) SRB dissolved in 1% (v/v) acetic acid were added into each well, plates were then incubated at RT for 30 min for staining, washed four times with 1% acetic acid to remove any unbound dye and then allowed to air dry for 5 min. Stain was solubilized with 100 ul of 10 mM Tris pH 10.5 per well. Absorbance was read at 570 nm on a spectrophotometer. GI50 (compound concentration required for 50% of growth inhibition) was calculated using GraphPad Prism 4.0 software (GraphPad Software, Inc., San Diego, Calif., USA).
(§3) Cell viability of various cell lines treated with 3-carboxy-N,N,N-trimethyl-2-pentadecanamidopropan-1-aminium (“nPAC”) and compound of Examples S7, S63, S66, S90, S89, S67, S75 and S10 was also assessed in a manner as described above in Example 5.

For the next assay, the system named is COLO-205. The conditions noted are these: Homo sapiens; Colon COLO-205, 3% FBS. The procedure:
as §1, §2, §3

The test system of a further assay is SW620. The following applies: Homo sapiens, SW-620; Colon SW620, 3% FBS. How it is done: as §1, §2, §3
The subject of another assay is SW480. The conditions noted are these: Homo sapiens; Colon SW480, 3% FBS. The procedure:
as §1, §2, §3

The subject of another assay is HCT-15. The following applies: Homo sapiens; Colon HCT-15, 3% FBS. How it is done: as §1, §2, §3
The subject of another assay is A54. The following applies: Homo sapiens; Lung A54, 3% FBS. The procedure: as §1, §2, §3
The subject of another assay is PC-3. The conditions noted are these: Homo sapiens. The procedure: (§4) Human cancer cells (MCF-7, H358, H460, HCT116 p53^+/+, HCT116 p53^−/−, A172, PC-3, DU-145 and SW626) were maintained in DMEM medium containing 10% Fetal Bovine Serum (FBS) (Invitrogen, Burlington, ON, Canada) and normal cells HMEC, 184A1, NHBE and PrEC were cultured in MEGM, MEGM plus transferring and cholera toxin, BEGM and PrEGM supplemented with various growth factors (Cambrex, Charles city, IA, USA), respectively.
as §1, §2, §3

For a further assay, the system named is H358. The conditions noted are these: Homo sapiens. How it is done: as §4, §1, §2, §3
For the next assay, the system named is A172. The conditions noted are these: Homo sapiens. How it is done: as §4, §1, §2, §3
The subject of a further assay is MCF-7. The following applies: Homo sapiens. How it is done: as §4, §1, §2, §3
The next assay deals with SW626. The conditions noted are these: Homo sapiens. The procedure: as §4, §1, §2, §3
[1] abbreviates: Prostate PC-3, 3% FBS, read-out: GI50.
Where [2] appears, read: NCI-H358, Lung H358, 3% FBS, read-out: GI50.
The mark [3] stands for this setting: A 172, Brain A172, 3% FBS, read-out: GI50.
Setting [4] is: MCF7, Breast MCF-7, 3% FBS, read-out: GI50.
Where [5] appears, read: Ovarian SW626, 3% FBS, read-out: GI50.
The mark [6] stands for this setting: NCI-H358, 144 h, treated 6 days, SRB assay, mean±SD of 2 experiments (FIG. 1, 2), read-out: GI50 for H358.
[7] abbreviates: MCF7, 144 h, treated 6 days, SRB assay, mean±SD of 2 experiments (FIG. 1, 2), read-out: GI50 for MCF-7.

Where two headings read alike, the source gives them in different places. A value given as a limit tells only on which side of the number the result lay.

As to `CCCCCCCCCCc1ccc(S(=O)(=O)N[C@H](CC(=O)O)C[N+](C)(C)C)cc1` [Example S75, (R)-3-carboxy-2-(4-decylphenylsulfonamido)-N,N,N-trimethylpropan-1-aminium 2,2,2-trifluoroacetate], the GI50 (in general, the concentration at which growth is held to half of that of the control) was determined as 13000 nM in the assay on Hs578T; 3600 nM with COLO-205; 4100 nM with SW620; 1900 nM in the assay with SW480; 5600 nM in the assay on HCT-15; 31000 nM with A54. For the same compound, the 50% growth inhibitory concentration (GI50) in the assay on PC-3 (setting [1]) came out at 1500 nM; in the assay on H358 (setting [2]), 2800 nM; in the assay on A172 (setting [3]), 18000 nM; in the assay with MCF-7 (setting [4]), 11000 nM; in the assay with SW626 (setting [5]), 4100 nM.

In the case of `CCCCCCCCCCc1ccc(C(=O)N[C@H](CC(=O)[O-])C[N+](C)(C)C)cc1` [Example S66, (R)-3-(4-decylbenzamido)-4-(trimethylammonio)butanoate], the GI50 in the assay with Hs578T came out at 8200 nM; in the assay on COLO-205 it was 400 nM; in the assay on SW620, 600 nM; in the assay with SW480, 300 nM; in the assay on HCT-15 it was 1100 nM; in the assay on A54 it was 28000 nM. In addition, the GI50 with PC-3 (setting [1]) was determined as 300 nM; in the assay with H358 (setting [2]) it was 400 nM; with A172 (setting [3]) it was 1800 nM; with MCF-7 (setting [4]) it was 100 nM; with SW626 (setting [5]) it was 1500 nM.

Turning to `CCCCCCCCc1ccc(NC(=O)N[C@H](CC(=O)[O-])C[N+](C)(C)C)cc1` [Example S7, (R)-3-(3-(4-octylphenyl)ureido)-4-(trimethylammonio)butanoate], the GI50 with Hs578T came to 33000 nM; in the assay with COLO-205, 900 nM; with SW620, 1500 nM; in the assay with SW480, 800 nM; with HCT-15, 1300 nM; with A54 it was 25000 nM. Further, the GI50 with PC-3 (PC-3, SRB assay, mean±SD of 2 experiments (FIG. 2), read-out: GI50 for PC-3) amounted to 800 ± 300 nM; with PC-3 (setting [1]), 700 nM; in the assay on H358 (setting [6]) it was 1000 ± 300 nM; with H358 (setting [2]) it was 500 nM; in the assay on A172 (A 172, 144 h, A172, normoxic condition (20% O2) for 6 days, read-out: GI50 Normoxi), 3800 ± 500 nM; in the assay on A172 (A 172, A172, hypoxic condition (0.2% O2) for 2 days, then normoxic for 4 days, read-out: GI50 Hypoxia) it was 1900 ± 800 nM. Further, the GI50 in the assay with A172 (setting [3]) is 3000 nM; with A172 (A 172, SRB assay, mean±SD of 2 experiments (FIG. 2), read-out: GI50 for A172) it was 3800 ± 500 nM; in the assay with MCF-7 (MCF7, 144 h, MCF-7, normoxic condition (20% O2) for 6 days, read-out: GI50 Normoxi), 5300 ± 1300 nM; in the assay with MCF-7 (setting [7]), 5000 ± 1300 nM; with MCF-7 (setting [4]), 4500 nM; in the assay with MCF-7 (MCF7, MCF-7, hypoxic condition (0.2% O2) for 2 days, then normoxic for 4 days, read-out: GI50 Hypoxia), 2500 ± 600 nM. In addition, the 50% growth inhibitory concentration (GI50) with SW626 (SW626, SRB assay, mean±SD of 2 experiments (FIG. 2), read-out: GI50 for SW626) is 800 ± 700 nM; with SW626 (setting [5]), 800 nM.

As to `CCCCCCCOc1ccc(NC(=O)N[C@H](CC(=O)[O-])C[N+](C)(C)C)cc1` [Example S10, (R)-3-(3-(4-(heptyloxy)phenyl)ureido)-4-(trimethylammonio)butanoate], the GI50 in the assay on Hs578T was greater than 50000 nM; with COLO-205 it was 4600 nM; in the assay on SW620 it was 19000 nM; in the assay on SW480 it was 9300 nM; in the assay with HCT-15 it was 28000 nM; in the assay on A54 it was greater than 50000 nM. The GI50 in the assay on PC-3 (setting [1]) turned out to be 5300 nM; in the assay on H358 (setting [6]), 4100 ± 1300 nM; in the assay with H358 (setting [2]) it was 3400 nM; with A172 (setting [3]), 40000 nM; in the assay with MCF-7 (setting [7]), 1000 ± 100 nM; in the assay on MCF-7 (setting [4]) it was 44000 nM. For the same compound, the GI50 with SW626 (setting [5]) came out at 15000 nM.

Regarding `CCCCCCCCCCCCc1ccc(NS(=O)(=O)N[C@H](CC(=O)O)C[N+](C)(C)C)cc1` [Example S89, (R)-3-(N-(4-dodecylphenyl)sulfamoylamino)-4-(trimethylammonio)-butanoate], the GI50 worked out at 7300 nM in the assay on Hs578T; 1400 nM with COLO-205; 1900 nM with SW620; 1500 nM with SW480; 2200 nM in the assay with HCT-15; 21000 nM in the assay with A54. Further, the GI50 in the assay on PC-3 (setting [1]) is 1600 nM; in the assay on H358 (setting [2]), 1400 nM; with A172 (setting [3]), 4100 nM; with MCF-7 (setting [4]), 4200 nM; in the assay on SW626 (setting [5]) it was 2300 nM.

`CCCCCCCCCCOc1ccc(C(=O)N[C@H](CC(=O)O)C[N+](C)(C)C)cc1` [Example S63, (R)-3-(4-(decyloxy)benzamido)-4-(trimethylammonio)butanoate 2,2,2-trifluoroacetate]: the GI50 was 3700 nM with Hs578T; 300 nM in the assay on COLO-205; 500 nM in the assay with SW620; 400 nM in the assay with SW480; 500 nM in the assay with HCT-15; 14000 nM in the assay with A54. Besides, the GI50 in the assay on PC-3 (setting [1]) stood at 300 nM; in the assay on H358 (setting [2]), 400 nM; in the assay on A172 (setting [3]), 900 nM; in the assay on MCF-7 (setting [4]) it was 400 nM; with SW626 (setting [5]), 1200 nM.

On to `CCCCCCCCCCCCCCc1ccc(NS(=O)(=O)N[C@H](CC(=O)O)C[N+](C)(C)C)cc1` [Example S90, (R)-3-(N-(4-tetradecylphenyl)sulfamoylamino)-4-(trimethylammonio)-butanoate], for which the concentration for 50% growth inhibition (GI50) in the assay with Hs578T amounted to 8200 nM; in the assay on COLO-205, 2400 nM; with SW620 it was 2400 nM; with SW480, 1300 nM; with HCT-15 it was 3300 nM; in the assay on A54, 21000 nM. Moreover, the GI50 in the assay on PC-3 (setting [1]) turned out to be 1300 nM; in the assay with H358 (setting [2]), 1100 nM; with A172 (setting [3]), 6600 nM; in the assay on MCF-7 (setting [4]) it was 4000 nM; with SW626 (setting [5]) it was 3100 nM.

Consider `CCCCCCCCCCOc1cccc(C(=O)N[C@H](CC(=O)[O-])C[N+](C)(C)C)c1` [Example S67, (R)-3-(3-(decyloxy)benzamido)-4-(trimethylammonio)butanoate], for which the GI50 with Hs578T was 17000 nM; in the assay with COLO-205 it was 2700 nM; with SW620 it was 5500 nM; in the assay with SW480, 700 nM; in the assay with HCT-15, 14000 nM; with A54, 88000 nM. The GI50 with PC-3 (setting [1]) stood at 1500 nM; in the assay on H358 (setting [2]), 700 nM; in the assay on A172 (setting [3]), 3600 nM; with MCF-7 (setting [4]) it was 700 nM; in the assay with SW626 (setting [5]), 2700 nM.

These data come from patent publication US8410150B2, “Inhibitors of carnitine palmitoyltransferase and treating cancer” (University Health Network, priority 2007, dated 2013).
